Patent US20250042885A1, “SOLID STATE FORMS OF LOTILANER AND PROCESS FOR PREPARATION THEREOF” (TEVA PHARMACEUTICALS INTERNATIONAL GMBH, priority 2021, published 2025)

Tests used:
Format in all cases: physicochemical
[1] = Stability to compression (XRPD)
Procedure: (§1) Prior to analysis, the samples were gently ground by means of mortar and pestle in order to obtain a fine powder. The ground sample was adjusted into a cavity of the sample holder and the surface of the sample was smoothed by means of a cover glass.
(§2) • Scan range: 2-40 degrees 2-theta; • Scan mode: continuous; • Step size: 0.05 degrees; • Time per step: 0.5 s; • Sample spin: 30 rpm; • Sample holder: PMMA specimen holder ring with silicon low background holder.
Samples of Lotilaner forms were subjected to pressures of 2 tons for one minute. XRPD analysis was performed on the samples after 1 minute.

[2] = Thermal stability (heating, XRPD)
Procedure: (§3) X-ray diffraction was performed on X-Ray powder diffractometer Bruker D8 Advance; CuK_radiation (λ=1.5418 Å); Lynx eye detector; laboratory temperature 22-25° C.; PMMA specimen holder ring. Prior to analysis, the samples were gently ground by means of mortar and pestle in order to obtain a fine powder. The ground sample was adjusted into a cavity of the sample holder and the surface of the sample was smoothed by means of a cover glass.
as §2
Samples of Lotilaner forms were subjected to heating up to 100° C. for 30 minutes. XRPD analysis of the sample confirmed no change in the starting material (Table 4): […]

[3] = Storage stability at different temperatures and/or relative humidities (XRPD)
Procedure: as §1, §2
Samples of Lotilaner forms were subjected to conditions of different temperatures and/or relative humidities. XRPD analysis was performed on the samples after 1, 3 or 6 months.

[4] = Storage stability at different relative humidities (XRPD); details: for at least 7 days; conclusion from Table 1
Procedure: as §1, §2
Samples of Lotilaner forms were subjected to conditions of different relative humidities at ambient temperature. XRPD analysis was performed on the samples after 7 days.

[5] = Grinding experiments (strong grinding, solvent drop grinding; XRPD)
Procedure: as §3, §2
Samples of Lotilaner forms were subjected to strong grinding, and to solvent drop grinding in water, ethanol or isopropanol. Grinding was carried out on the samples alone, or in the presence of ethanol, water or isopropanol. In these experiments, about 20 mg of the sample is placed in a mortar and ground with a pestle for 2 minutes. The solvent, when used, as added to the crystalline material before grinding, in a volume of 10 microlitres. XRPD analysis performed on each of the samples after the grinding experiment, confirmed no change in the starting material (Table 3): […]

Cc1cc(C2=NO[C@@](c3cc(Cl)c(Cl)c(Cl)c3)(C(F)(F)F)C2)sc1C(=O)NCC(=O)NCC(F)(F)F [Form LT1 Lotilaner, 3-Methyl-N-[2-oxo-2-(2,2,2-trifluoroethylamino)ethyl]-5-[(5S)-5-(3,4,5-trichlorophenyl)-5-(trifluoromethyl)-4H-1,2-oxazol-3-yl]thiophene-2-carboxamide]
stable: Stability under high pressure conditions ([1]; conclusion from Table 5) | Stability after exposure to high and low relative humidity [4]
resistant to polymorphic changes: Resistance to polymorphic changes on grinding ([5]; conclusion from Table 3)
good storage stability: Storage stability ([3]; conclusion from Table 2)
No change: XRPD analysis results, pressure (2 tons) ([1]; 2 tons for one minute) | XRPD analysis after heating 100° C., 30 minutes [2] | XRPD analysis after storage, 2-8° C. ([3]; 6 months (6 m)) | XRPD analysis after storage, 25° C., 60% RH ([3]; 6 months (6 m)) | XRPD analysis after storage, 40° C., 75% RH ([3]; 6 months (6 m)) | XRPD analysis after strong grinding ([5]; about 20 mg ground in mortar with pestle for 2 minutes, no solvent) | XRPD analysis after solvent-drop grinding (ethanol) ([5]; ground 2 minutes, 10 microlitres ethanol) | XRPD analysis after solvent-drop grinding (isopropanol) ([5]; ground 2 minutes, 10 microlitres isopropanol) | XRPD analysis after solvent-drop grinding (water) ([5]; ground 2 minutes, 10 microlitres water)

Cc1cc(C2=NO[C@@](c3cc(Cl)c(Cl)c(Cl)c3)(C(F)(F)F)C2)sc1C(=O)NCC(=O)NCC(F)(F)F [Form LT4 Lotilaner, 3-Methyl-N-[2-oxo-2-(2,2,2-trifluoroethylamino)ethyl]-5-[(5S)-5-(3,4,5-trichlorophenyl)-5-(trifluoromethyl)-4H-1,2-oxazol-3-yl]thiophene-2-carboxamide]
No change: XRPD analysis after storage, 2-8° C. ([3]; 3 months (3 m)) | XRPD analysis after storage, 25° C., 60% RH ([3]; 3 months (3 m)) | XRPD analysis after storage, 40° C., 75% RH ([3]; 3 months (3 m))

Cc1cc(C2=NO[C@@](c3cc(Cl)c(Cl)c(Cl)c3)(C(F)(F)F)C2)sc1C(=O)NCC(=O)NCC(F)(F)F [Form LT5 Lotilaner, 3-Methyl-N-[2-oxo-2-(2,2,2-trifluoroethylamino)ethyl]-5-[(5S)-5-(3,4,5-trichlorophenyl)-5-(trifluoromethyl)-4H-1,2-oxazol-3-yl]thiophene-2-carboxamide]
No change: XRPD analysis after storage, 2-8° C. ([3]; 1 month (1 m)) | XRPD analysis after storage, 25° C., 60% RH ([3]; 1 month (1 m)) | XRPD analysis after storage, 40° C., 75% RH ([3]; 1 month (1 m))
